Assay results reported in the supplement of paper PMC10307832.

Experiments:
Test in all cases: relative viability (nuclei count vs DMSO), 5 days (fraction); higher = more cells survive
[1] = compound: C=CCn1c(=O)c2cnc(Nc3ccc(N4CCN(C)CC4)cc3)nc2n1-c1cccc(C(C)(C)O)n1 [Adavosertib] + CC1(C)CCC(c2ccc(Cl)cc2)=C(CN2CCN(c3ccc(C(=O)NS(=O)(=O)c4ccc(N[C@H](CCN5CCOCC5)CSc5ccccc5)c(S(=O)(=O)C(F)(F)F)c4)cc3)CC2)C1 [Navitoclax] (partner 0.5 µM)
Method in brief: (§1)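 Five library-drug doses in √10 steps were combined with a fixed anchor-drug dose, or a single drug was given alone, by pin tool to lung cancer cell lines in 1536-well plates the day after seeding. Nuclei were stained and counted after 5 days. Relative viability is the nuclei count in treated wells over that in vehicle wells, taken as the median of duplicate plates.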

[2] = compound: C=CCn1c(=O)c2cnc(Nc3ccc(N4CCN(C)CC4)cc3)nc2n1-c1cccc(C(C)(C)O)n1 [Adavosertib] + CS(=O)(=O)CCNCc1ccc(-c2ccc3ncnc(Nc4ccc(OCc5cccc(F)c5)c(Cl)c4)c3c2)o1 [Lapatinib] (partner 2 µM)
Method in brief: as §1

[3] = compound: COc1nc(N)nc2c1ncn2[C@@H]1O[C@H](CO)[C@@H](O)[C@@H]1O [Nelarabine] + CCNC(=O)c1noc(-c2cc(C(C)C)c(O)cc2O)c1-c1ccc(CN2CCOCC2)cc1 [Luminespib] (partner 0.01 µM)
Method in brief: as §1

[4] = compound: COc1nc(N)nc2c1ncn2[C@@H]1O[C@H](CO)[C@@H](O)[C@@H]1O [Nelarabine] + Cc1nc(Nc2ncc(C(=O)Nc3c(C)cccc3Cl)s2)cc(N2CCN(CCO)CC2)n1 [Dasatinib] (partner 0.075 µM)
Method in brief: as §1

Cell Line | relative viability ([1]; first compound 0.01 µM) | relative viability ([1]; first compound 0.03162 µM) | relative viability ([1]; first compound 0.1 µM) | relative viability ([1]; first compound 0.3162 µM) | relative viability ([2]; first compound 0.01 µM) | relative viability ([2]; first compound 0.03162 µM) | relative viability ([2]; first compound 0.1 µM) | relative viability ([2]; first compound 0.3162 µM) | relative viability ([3]; first compound 0.01 µM) | relative viability ([3]; first compound 0.03162 µM) | relative viability ([3]; first compound 0.1 µM) | relative viability ([3]; first compound 0.3162 µM) | relative viability ([3]; first compound 1 µM) | relative viability ([4]; first compound 0.01 µM) | relative viability ([4]; first compound 0.03162 µM) | relative viability ([4]; first compound 0.1 µM) | relative viability ([4]; first compound 0.3162 µM) | relative viability ([4]; first compound 1 µM)
NCI-H2347 | 0.811 | 0.804 | 0.954 | 0.791 | 0.889 | 0.912 | 1.13 | 1.03 | 0.463 | 0.743 | 0.621 | 0.48 | 0.478 | 0.328 | 0.306 | 0.252 | 0.289 | 0.308
NCI-H596 | 0.897 | 1.01 | 1.06 | 0.742 | 0.995 | 1.12 | 1.01 | 1 | 1.04 | 0.996 | 1.08 | 1.12 | 0.988 | 0.752 | 0.571 | 0.488 | 0.581 | 0.666
NCI-H727 | 0.468 | 0.566 | 0.678 | 0.372 | 0.872 | 0.859 | 0.852 | 1.02 | 0.305 | 0.377 | 0.351 | 0.469 | 0.298 | 0.318 | 0.418 | 0.295 | 0.249 | 0.44
EPLC-272H | 1.09 | 0.987 | 0.983 | 0.861 | 0.745 | 0.958 | 0.844 | 0.739 | 0.137 | 0.483 | 0.446 | 0.259 | 0.301 | 0.323 | 0.361 | 0.129 | 0.401 | 0.29
NCI-H2170 | 0.605 | 0.57 | 0.482 | 0.313 | 0.273 | 0.27 | 0.277 | 0.287 | 1.17 | 1.21 | 0.602 | 0.746 | 0.465 | 0.61 | 0.608 | 0.491 | 0.697 | 0.614
NCI-H1355 | 0.996 | 0.848 | 0.987 | 0.852 | 0.955 | 1.02 | 0.966 | 0.948 | 0.763 | 0.618 | 0.667 | 0.629 | 0.713 | 0.849 | 0.573 | 0.564 | 0.744 | 0.706
SK-MES-1 | 1.17 | 1.25 | 1.31 | 1.11 | 0.45 | 0.43 | 0.476 | 0.389 | 0.954 | 0.622 | 0.748 | 0.847 | 0.797 | 0.385 | 0.263 | 0.172 | 0.324 | 0.301
LOU-NH91 | 0.718 | 0.688 | 0.663 | 0.53 | 0.74 | 0.804 | 0.734 | 0.674 | 0.392 | 0.45 | 0.354 | 0.346 | 0.356 | 0.628 | 0.591 | 0.436 | 0.585 | 0.605
NCI-H322M |  | 1.25 | 1.12 | 0.953 |  | 0.558 | 0.505 | 0.435 | 0.917 | 0.84 | 0.79 | 0.834 | 0.967 | 0.268 | 0.252 | 0.231 | 0.273 | 0.246
HCC-15 | 0.699 | 0.712 | 0.801 | 0.821 | 0.902 | 0.87 | 0.934 | 0.955 | 0.304 | 0.158 | 0.349 | 0.295 | 0.409 | 0.568 | 0.554 | 0.523 | 0.639 | 0.67
A-427 | 0.94 | 0.908 | 0.959 | 0.895 | 1.01 | 1.02 | 1.07 | 0.999 | 0.96 | 0.982 | 0.721 | 0.964 | 0.983 | 0.721 | 0.662 | 0.753 | 0.736 | 0.789
NCI-H2228 | 0.691 | 1.41 | 0.885 | 0.305 | 1.39 | 1.13 | 1.46 | 0.494 | 0.182 | 0.156 |  | 0.161 | 0.151 | 0.725 | 0.481 |  | 0.629 | 0.559
CAL-12T | 1.03 | 1.33 | 1.19 | 1.02 |  | 0.678 | 0.598 | 0.464 | 0.32 | 0.315 | 0.367 | 0.699 | 0.394 | 0.426 | 0.484 | 0.16 | 0.51 | 0.482
NCI-H1793 | 0.338 | 0.405 | 0.422 | 0.425 | 0.61 | 0.714 | 0.721 | 0.647 | 0.421 | 0.156 | 0.201 | 0.251 | 0.191 | 0.458 | 0.398 | 0.416 | 0.426 | 0.409
NCI-H460 | 0.942 | 1.18 | 1.45 | 0.861 | 1.11 | 0.978 | 1.04 | 0.83 | 0.0293 | 0.0328 | 0.0352 | 0.0376 | 0.0317 | 0.66 | 0.601 | 0.452 | 0.64 | 0.495
HARA | 1.11 | 1.11 | 1.13 | 1.1 | 0.648 | 0.858 | 0.648 | 0.729 | 0.77 | 0.84 | 1 | 0.863 | 0.749 | 0.279 | 0.339 | 0.236 | 0.329 | 0.436
NCI-H1437 | 1.05 | 1.13 | 1.16 | 1.11 | 0.83 | 0.778 | 0.831 | 0.812 | 1.3 | 1.02 | 1.13 | 1.21 | 1.02 | 0.554 | 0.468 | 0.304 | 0.466 | 0.362
201T | 1.24 | 1.18 | 1.26 | 1.18 | 1.02 | 1.01 | 1.02 | 1.09 | 1.09 | 1.09 | 1.03 | 1.07 | 1.04 | 0.602 | 0.57 | 0.429 | 0.577 | 0.625
